# Columns and labels:
# Format in all cases: biochemical
# PTP1B = target: T1, PTP1B (Homo sapiens, UniProt P18031); test: DiFMUP assay for PTP1B, TCPTP, VHR; details: 12.5 μM, 30 min incubation, 20 μM DiFMUP, 50 nM enzyme
# T1 construct: made in house
# T1 sequence (P18031 1-435): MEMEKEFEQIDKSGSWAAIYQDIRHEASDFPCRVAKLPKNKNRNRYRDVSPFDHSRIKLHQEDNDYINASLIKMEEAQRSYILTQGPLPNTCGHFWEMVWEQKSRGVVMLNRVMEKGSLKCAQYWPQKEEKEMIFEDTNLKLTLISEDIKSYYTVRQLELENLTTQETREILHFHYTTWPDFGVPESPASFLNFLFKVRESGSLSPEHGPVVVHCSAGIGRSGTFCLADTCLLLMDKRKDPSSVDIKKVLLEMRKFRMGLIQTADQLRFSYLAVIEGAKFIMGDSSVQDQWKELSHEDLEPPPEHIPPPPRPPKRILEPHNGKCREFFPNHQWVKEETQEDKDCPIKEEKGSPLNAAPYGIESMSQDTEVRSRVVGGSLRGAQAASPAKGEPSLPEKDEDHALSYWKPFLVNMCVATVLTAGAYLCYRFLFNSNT
# Experimental: (§1) As an extension of our studies we included PTP1B, VHR and TCPTB as examples for phosphotyrosine specific phosphatases in our activity studies, because tea extracts were reported to inhibit PTP1B [43]. For comparison with PRL-3, these proteins were used in the same concentration (50 nM) as PRL-3 and DiFMUP was also used as a substrate in 20 μM concentration. The enzymes were incubated with three different concentrations of procyanidin C2 (9) for 30 min before the measurement.
# (§2) Fig 3 Effect of procyanidin C2 (9) on the phosphatase activity of VHR, PTP1B and TCPTP using DiFMUP as a substrate. Proteins were incubated with compound 9 for 30 min., phosphatase activity measurements were performed using 20 μM DiFMUP. Phosphatase activity in the absence of compound 9 was set as 100%. Data represent means ± standard errors of the mean (n = 3).
# (§3) DiFMUP assay for PTP1B, TCPTP, VHR: In a final reaction volume of 100 μL the PTPs (50 nM final concentration) were incubated with […] of procyanidin C2 (9) for 30 minutes at 25°C. The buffer conditions were pH 7.2, 4-/2-Hydroxyethyl)-1-piperazineethanesulfonic acid (HEPES) 25 mM, EDTA 2.5 mM, DTT 2.0 mM, NaCl 124.4 mM. After the incubation time 20 μL DiFMUP was added to reach a final concentration of 20 μM. On a Tecan safire2 (Tecan, Salzburg, Austria) plate reader dephosphorylation of the substrate to its fluorescent product was monitored by following the emission at […] for 10 minutes. All measurements were done in triplicates, and the experiments were repeated at least three times. The slopes of the initial phases were obtained by linear regression of the data points. The normalized reaction rates were plotted versus the log of the inhibitor concentrations and the IC50 values were obtained by fitting the curves using the one site competition model of GraphPad Prism (GraphPad Software, Version 5). Due to the high water solubility of 9 DMSO was not required and measurements were done in assay buffer only.
# TCPTP = target: T2, TCPTP (Homo sapiens, UniProt P17706); test: DiFMUP assay for PTP1B, TCPTP, VHR; details: 12.5 μM, 30 min incubation, 20 μM DiFMUP, 50 nM enzyme
# T2 construct: made in house
# T2 sequence (P17706 1-415): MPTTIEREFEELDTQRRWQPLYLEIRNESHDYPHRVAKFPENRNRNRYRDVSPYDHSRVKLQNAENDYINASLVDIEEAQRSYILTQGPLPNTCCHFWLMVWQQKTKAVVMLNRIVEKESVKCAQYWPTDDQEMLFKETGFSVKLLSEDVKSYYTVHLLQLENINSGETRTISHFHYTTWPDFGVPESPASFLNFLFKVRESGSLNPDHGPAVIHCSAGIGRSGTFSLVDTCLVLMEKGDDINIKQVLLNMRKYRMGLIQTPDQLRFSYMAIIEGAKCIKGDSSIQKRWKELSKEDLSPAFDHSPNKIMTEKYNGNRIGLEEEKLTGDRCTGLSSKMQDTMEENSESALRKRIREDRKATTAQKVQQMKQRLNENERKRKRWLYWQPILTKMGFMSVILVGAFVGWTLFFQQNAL
# Experimental: as §1, §2, §3
# VHR = target: T3, VHR (Homo sapiens, UniProt P51452); test: DiFMUP assay for PTP1B, TCPTP, VHR; details: 12.5 μM, 30 min incubation, 20 μM DiFMUP, 50 nM enzyme
# T3 construct: made in house
# Experimental: as §1, §2, §3
# PRL-3 = target: T4, PRL-3 (Homo sapiens, UniProt O75365); test: DiFMUP phosphatase activity assay for PRLs; details: 20 μM DiFMUP
# T4 construct: His-TEV (cleaved yes); made in house
# T4 sequence (O75365 whole entry): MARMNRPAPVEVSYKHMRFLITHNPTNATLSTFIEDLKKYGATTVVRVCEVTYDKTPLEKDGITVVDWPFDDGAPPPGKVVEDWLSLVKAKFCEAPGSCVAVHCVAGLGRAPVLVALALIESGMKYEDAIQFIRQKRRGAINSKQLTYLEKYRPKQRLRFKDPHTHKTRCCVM
# T3 sequence (P51452 whole entry, species assumed): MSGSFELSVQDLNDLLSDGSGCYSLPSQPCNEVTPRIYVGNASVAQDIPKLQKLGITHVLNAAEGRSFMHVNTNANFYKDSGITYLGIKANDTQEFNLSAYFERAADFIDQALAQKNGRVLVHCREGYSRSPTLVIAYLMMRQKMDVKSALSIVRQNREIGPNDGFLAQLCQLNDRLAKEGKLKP
smiles,measurement,setting,value
"Oc1cc(O)c2c(c1)O[C@H](c1ccc(O)c(O)c1)[C@@H](O)[C@@H]2c1c(O)cc(O)c2c1O[C@H](c1ccc(O)c(O)c1)[C@@H](O)[C@@H]2c1c(O)cc(O)c2c1O[C@H](c1ccc(O)c(O)c1)[C@@H](O)C2 [Procyanidin C2 (9), Procyanidin C2]",PTP1B phosphatase activity compared to the control,PTP1B,75–85%
same,TCPTP phosphatase activity compared to the control,TCPTP,75–85%
same,VHR phosphatase activity compared to the control,VHR,75–85%
same,PRL-3 phosphatase activity compared to the control,"PRL-3; 12.5 μM, 30 min incubation, 50 nM enzyme",75–85%
same,inhibition of PRL-3 activity,PRL-3; 25 μM and 50 μM,inhibited in a concentration dependent manner

# Reference: paper PMC4520450, “Procyanidins Negatively Affect the Activity of the Phosphatases of Regenerating Liver” (PLoS ONE, 2015)
